Source: patent US20080045482A1, “COMPOSITIONS AND METHODS FOR THE TREATMENT OF VIRAL INFECTIONS” (priority 2006, published 2008)
“And” between values parts separate entries of the source, which are not always exact repeats. Identical values can stand only once.

Legend:
[1] = test system: A/California/2935/03 (H1N1); format: cell-based, human influenza A virus
[2] = test system: A/NorthDakota/2463/03 (H3N2); format: cell-based, human influenza A virus
[3] = test system: A/Equine1/Prague/1/56 (H3N8); format: cell-based, equine influenza A virus
[4] = test system: A/Duck/Penn/10218/84 (H5N2); format: cell-based, avian influenza A virus
[5] = test system: Human Immunodeficiency Virus-1 (HIV-1); conditions: HIV-1, in words
HIV-2 = conditions: HIV-2, in words
[6] = test system: Herpes Simplex Virus-1 (HSV-1); conditions: HSV-1, in words
HSV-2 = conditions: HSV-2, in words
[7] = test system: Adenovirus type-1 (AdV-1, strain 65089); conditions: AdV-1, strain 65089, in words
[8] = test system: Punta Torro Virus (strain Adames); conditions: in words
[9] = test system: Pichinde Virus (strain 4763); conditions: Pichinde Virus strain 4763, in words
[10] = test system: Vaccinia Virus (strain WR); conditions: in words
[11] = test system: Venezuelan Equine Encephalitis Virus (VEE, Trinidad strain)
[12] = test system: West Nile Virus (WNV, strain New York); conditions: in words
[13] = test system: Yellow Fever Virus (17D strain)
B/1060/03 = format: cell-based, human influenza B virus
pH in water = format: physicochemical
[14] = test system: viral strains from avian, human and equine influenza; format: cell-based, influenza virus; conditions: read-out: IC90 concentrations
Aqueous solubility = conditions: 37° C. in distilled water

O=C(O)P(O)(O)=S [TPFA, thiophosphonoformic acid]
inhibitory activity [1]: has inhibitory activity
inhibitory activity [2]: has inhibitory activity
inhibitory activity [3]: has inhibitory activity
inhibitory activity [4]: has inhibitory activity
inhibitory activity [5]: has inhibitory activity
inhibitory activity (HIV-2): has inhibitory activity
inhibitory activity [6]: has inhibitory activity
inhibitory activity (HSV-2): has inhibitory activity
inhibitory activity [7]: does not have inhibitory activity
inhibitory activity [8]: does not have inhibitory activity
inhibitory activity [9]: does not have inhibitory activity
inhibitory activity [10]: does not have inhibitory activity
inhibitory activity [11]: does not have inhibitory activity
inhibitory activity [12]: does not have inhibitory activity
inhibitory activity [13]: does not have inhibitory activity
metabolism (Metabolism in the body): metabolized to phosphonoformic acid and thiophosphonic acid

O=C(O)P(O)(O)=S [Thiovir]
IC50 [1]: 38 µM
IC50 [2]: 29 µM
IC50 [3]: 55 µM
IC50 [4]: 32 µM
IC50 (B/1060/03): 92 µM
pH in water (pH in water): approximately 9
IC90 [14]: < 250 µM and ~200 µM
aqueous solubility (Aqueous solubility): 40.8 g/100 mL
